This assay addresses T1, PDE V (Homo sapiens, UniProt O76074).
T1 construct: Fractions that contain PDE V are pooled and dialyzed overnight; from tissue
Put plainly: Type V phosphodiesterase inhibition (hydrolysis of [3H]-cyclic GMP). The class given is biochemical. The following applies: enzyme isolated from platelets. How it is done: Protocol for Enzyme Isloation: The Type V PDE is isolated using a procedure similar to that previously described by Weishaar et al., Hypertension 15:528, (1990). Briefly, 1-2 units of platelets are suspended in an equal volume of buffer A (20 mM Tris-HCl, pH 7.5, containing 2 mM magnesium acetate, I mM dithiothreitol, and 5 mM Na2EDTA) using a polytron. The proteinase inhibitor phenylmethylsulfonyl fluoride (PMSF) are also included in this buffer at a final concentration of 200 uM. This and all subsequent procedures are performed at 0-4°C. The homogenate is then centrifuged at 100,000 rpm for 60 minutes. The supernatant is then removed and filtered through four layers of gauze and applied to a DEAE-Trisacryl M column. The column is washed with several bed volumes of buffer B (20 mM Tris-HCl, pH 7.5, containing 2 mM magnesium acetate, 1 mM dithiothreitol, and […]) and eluted by two successive linear NaCl gradients (0.05-0.15 M, 300 ml total; 0.15-0.40 M, 200 ml total). Five ml fractions are collected and assayed for cyclic AMP and cyclic GMP PDE activity. Fractions that contain PDE V are pooled and dialyzed overnight against 4 L of buffer C (20 mM Tris-HCl, pH 7.5, containing 2 mM magnesium acetate and proteinase inhibitors). The dialyzed PDE V is then concentrated to 10% of the original volume, diluted to 50% with ethylene glycol monoethyl ether and stored at -20°C. PDE V can typically be retained for up to four weeks with little or no loss of activity.
Measuring Type V PDE Activity: Enzyme activity is assessed by measuring the hydrolysis of [^3H]-cyclic GMP, as described by Thompson et al. (Thompson, W.J., Teraski, W.L., Epstein, P.N., Strada, S.J.: Adv. Cyclic Nucleotide Res. 10:69, 1979). The cyclic GMP concentration used in this assay is 0.2 uM, which approximates to the Km value. Protein concentration is adjusted to ensure that no more than 15% of the available substrate is hydrolyzed during the incubation period.
All test compounds are dissolved in dimethyl sulfoxide (final concentration of 2.5%). This concentration of dimethyl sulfoxide inhibits enzyme activity by approximately 10%. The reference Type V PDE inhibitor zaprinast is evaluated with each assay.
The compounds are tested over concentration range: 0.1, 1, 10, 100 uM (n=1), and IC50 determinations are made using 5 appropriate concentrations (n=2).
Compound `COc1ccc(Cn2cnc(=O)c3[nH]c(C(C)(C)OCc4ccc(F)cc4)nc32)cc1OC1CCCC1` [3-(3-Cyclopentyloxy-4-methoxy-benzyl)-8-(1-(4-fluorobenzyloxy)-1-methyl-ethyl)-hypoxanthine] had an IC50 of 14.5 µM.
The compound `COc1ccc(Cn2cnc(=O)c3[nH]c(C(C)(C)OCc4ccccc4)nc32)cc1OC1CCCC1` [8-(1-benzyloxy-1-methyl-ethyl)-3-(3-cyclopentyloxy-4-methoxy-benzyl)-hypoxanthine] showed an IC50 of 8.28 µM.
Take `COc1ccc(Cn2cnc(=O)c3[nH]c(C(C)(C)OCc4ccccc4)nc32)cc1OC` [8-(1-Benzyloxy-1-methyl-ethyl)-3-(3,4-dimethoxybenzyl)-hypoxanthine]: the half-maximal inhibitory concentration (IC50) was 10 µM.
The value for `COc1ccc(Cn2cnc(=O)c3[nH]c(C(C)C)nc32)cc1OC` [3-(3,4-Dimethoxy-benzyl)-8-(1-methyl-ethyl)-hypoxanthine] was 10.6 µM; that for `COc1ccc(Cn2cnc(=O)c3[nH]c(C(C)C)nc32)cc1OC1CCCC1` [3-(3-Cyclopentyloxy-4-methoxy-benzyl)-8-isopropyl-hypoxanthine] was 49 µM; that for `COc1ccc(Cn2cnc(=O)c3[nH]c(C(C)(C)OCc4ccc(F)cc4)nc32)cc1OC` [3-(3,4-Dimethoxybenzyl)-8-(1-(4-fluorobenzyloxy)-1-methyl-ethyl)-hypoxanthine] was 35.8 µM.
The value for `COc1ccc(Cn2cnc(=O)c3[nH]c(C(C)(C)OCc4ccccc4)nc32)cc1OCc1ccccc1` [3-(3-benzyloxy-4-methoxy-benzyl)-8-(1-benzyloxy-1-methyl-ethyl)-hypoxanthine] was 12.5 µM; that for `CC(C)c1nc2c([nH]1)c(=O)ncn2Cc1ccc(Cl)cc1` [3-(4-Chloro-benzyl)-8-(1-methyl-ethyl)-hypoxanthine] was 7.6 µM; that for `COc1ccc(Cn2cnc(=O)c3[nH]c(COCc4ccccc4)nc32)cc1OC1CCCC1` [8-Benzyloxymethyl-3-(3-cyclopentyloxy-4-methoxy-benzyl)-hypoxanthine] was 7.53 µM.
For the compound `CC(C)c1nc2c([nH]1)c(=O)ncn2Cc1cccc(Cl)c1` [3-(3-Chloro-benzyl)-8-(1-methyl-ethyl)-hypoxanthine], the IC50 amounted to 6.32 µM.
The figure for `COc1ccc(Cn2cnc(=O)c3[nH]c(C(C)(C)O)nc32)cc1OC1CCCC1` [3-(3-Cyclopentyloxy-4-methoxy-benzyl)-8-(1-hydroxy-1-methyl-ethyl)-hypoxanthine] is 193 µM.

As usually defined, the IC50 is the midpoint of a concentration-inhibition curve.

The values above are taken from patent publication EP1202628B1, “NOVEL HYPOXANTHINE AND THIOHYPOXANTHINE COMPOUNDS” (EURO-CELTIQUE S.A., priority 1999, dated 2001).
